Laboratory results as given in publication PMC8708875 (Pharmaceutics, 2021).

System: C57BL/6N (WT) mice
Type: in vivo, mouse
Details: WT mice fasted 12 h, glucose 2 g/kg ip at time zero
Method: In vivo experiments were conducted with male C57BL/6N (WT) mice 12–16 weeks-old (University of São Paulo Medical School Animal Facility, SP, Brazil). Mice were maintained in individual ventilated cages (Amresco, SP, Brazil), under standardized conditions with an artificial 12 h dark–light cycle, with free access to standard chow (Nuvital Nutrientes S.A., Colombo, PR, Brazil) and drinking water ad libitum. The number of animals used was the minimum necessary to obtain statistically significant results and they were maintained and used in accordance with the guidelines of the National Council for Control of Animal Experiments (CONCEA), following international norms of animal care and maintenance. Thus, we hereby state that all experimental protocols were previously approved by University of São Paulo Ethic committee councils from Biomedical Science Institute (approval number for mice experimentation ICB/USP 22/2017).
WT mice were fasted for 12 h and blood samples were taken before and at 15, 30, 60, 90, and 120 min after the intraperitoneal (ip) injection of 2 g/kg glucose. Glycemia was measured using a glucometer (Accu-Check Performa, ROCHE, São Paulo, Brazil). Peptides were evaluated to affect glucose uptake either after ip or oral (by gavage) administration. After 20 min glucose was administrated (blood glucose levels reached 400 mg/dL), animals received ip or oral administration of either saline, insulin (0.75 IU/kg), or peptide (Ric2 or Ric4; 600 µg/kg). In addition, a group of animals received oral administration of either water or Ric2 or Ric4 (600 µg/kg). Glycemia was measured as indicated following vehicle, insulin, or peptide administration.

LASVSTVLTSKYR [Ric4, intracellular peptide derived from hemoglobin alpha subunit, last 13 C-terminal amino acids]
blood glucose levels in GTT, ip administration (peptide 600 µg/kg ip 20 min after glucose): rapidly induced a decrease in blood glucose levels
blood glucose levels in GTT, oral administration (peptide 600 µg/kg orally by gavage): decreased blood glucose levels
